Assay results: patent publication US12215162B2, “BAFF-R targeted chimeric antigen receptor-modified T-cells and uses thereof” (CITY OF HOPE, priority 2016, dated 2025)

Assays:
SP49 = settings: 100 nM ibrutinib; cited from earlier work
SP49-IR = settings: 100 nM ibrutinib; cited from earlier work
[1] = test system: RS4; 11 (acute lymphoblastic leukemia, ALL); test: In vivo RS4;11 ALL tumor model, antibody treatment; parameters: species or system NSG mice; settings: 200 μg antibody + NK-92-176V cells + IL-2 IV
Source text: FIG. 4A is a schematic showing treatment schedule following Day 0 tumor challenge with minimum lethal dose of tumors. Treatments were given by IV tail vein injections. FIGS. 4B and 4C are images showing chimeric antibodies targeting human BAFF-R elicited in vivo therapeutic effects against B-cell tumors. Bioluminescence images of mice challenged with luciferase-expressing tumors: JeKo-1 (MCL) (FIG. 4B) or RS4; 11 (ALL) (FIG. 4C). Experimental groups received treatment of chimeric BAFF-R mAbs (C55 or C90, as indicated). Control group mice received PBS, NK cells alone, or rituximab on the same schedule. Data are representative of three independent experiments.
(§1) In vivo studies. For tumor models, stable, luciferase-expressing tumors lines were established for bioluminescent imaging in mouse models. Briefly, a luciferase gene was introduced into tumor lines by a lentivirus gene delivery system (pLenti7.3/V5-DEST Gateway Vector Kit, Life Technologies, Carlsbad, CA). The minimum lethal dose per mouse was determined for each tumor cell line by dose titration. Tumor cells were injected intravenously (IV) and mice were monitored by in vivo bioluminescence imaging for minimum tumor dose to ensure engraftment. Minimum lethal tumor doses were 1×10^6 JeKo-1, 5×10^5 RS4; 11, 5×10^5 JeKo-1-CD20-KO, or 2.5×10^4 Z-138 cells. […]

JeKo-1-CD20-KO clone 25 = test: ADCC against rituximab-resistant JeKo-1-CD20-KO; assay type: cell-based, human; settings: NK cells E:T 20:1
Description: FIGS. 5A, 5B and 5C are images or graphs showing chimeric BAFF-R antibodies induce ADCC on drug resistant lymphoma models in vitro. FIG. 5A is a scatterplot of FACS analysis showing CD20 binding on JeKo-1 cells following CRISPR/HDR knock-out of CD20 gene. CD20 expression on selected CD20−/−clone #25 compared to WT JeKo-1. ADCC effects measured by chromium-51 release after incubation with C55, C90, or rituximab and effectors NK cells (E:T=20:1). Percentage of cell specific lysis of target cells: rituximab-resistant JeKo-1-CD20-KO (FIG. 5B) and ibrutinib-resistant Z-138 and SP49-IR (FIG. 5C). All data are representative of two or more identical experiments. Data are shown as the mean±s.d. of triplicate samples. *P<0.05 compared with NK cells by two-tailed Student's t-test.
Cytotoxicity assays. Target cells (L cells, human tumor lines, primary patient samples) were labeled with chromium-51 (51Cr, Perkin Elmer, Waltham, MA) for a 51Cr release assay. Briefly, antibodies and effectors (NK cells or complement serum standard [Sigma Aldrich, St. Louis, MO]), were added to labeled target cells and incubated up to 18 hours. NK cells were enriched from PBMC (NK cell enrichment kit, Stemcell Technologies, Vancouver, Canada). 51Cr released into supernatant was detected with a Wizard Automatic Gamma Counter (Perkin Elmer).
Generation of JeKo-1-CD20-KO. […]

JeKo-1-CD20-KO = test: In vivo JeKo-1-CD20-KO tumor model, antibody treatment; parameters: species or system NSG mice; settings: Day 20
Source text: FIGS. 6A and 6B are images and FIG. 6C are graphs showing chimeric antibodies targeting human BAFF-R elicited in vivo therapeutic effects against drug resistant B-cell tumors. Bioluminescence images of mice challenged with luciferase-expressing tumors JeKo-1-CD20-KO cells (FIG. 6A) or ibrutinib-resistant Z-138 cells (FIG. 6B) followed by antibody treatments as in FIG. 4. Control group mice received PBS, NK cells alone, or rituximab on the same schedule. […] Tumor free rate and survival differences between experimental and all control groups were analyzed by log-rank test (** P<0.001). Data are representative of three independent experiments.
as §1

[2] = test system: RS4 acute lymphoblastic lymphoma; test: Chromium release ADCC on RS4; assay type: cell-based, human; settings: NK cells E:T 20:1, 6 hours
Description: FIGS. 21A and 21B are graphs showing humanized antibodies C90-4 and C90-5 analyzed for their specific cytotoxicity of various lymphoma lines. For FIG. 21A, JeKo-1, Z138, and RS4 were subjected to a chromium release assay with humanized antibodies C90-4 and C90-5. Antibodies were administered to the cell lines at concentrations between 0 to 5 μg/mL and incubated for 6 hours with NK cells at an E:T ratio of 20:1. The cell supernatants were analyzed for their chromium content. For FIG. 21B, LY-10, MEC-2, RL, and Raji lymphoma lines were subjected to a chromium release assay with humanized antibodies C90-4 and C90-5. Antibodies were administered to the cell lines at 5 μg/mL and incubated for 6 hours with NK cells at an E:T ratio of 20:1. The cell supernatants were analyzed for their chromium content.
The two variants were further assessed in their ability to initiate ADCC. The antibodies were administered in varying concentration to JeKo-1, Z138, and RS4 lines after a period of chromium uptake. The cells and antibodies were incubated with effector NK cells. The supernatant was analyzed 6 hours post treatment (FIG. 21A).

## C=CC(=O)N1CCC[C@@H](n2nc(-c3ccc(Oc4ccccc4)cc3)c3c(N)ncnc32)C1 [ibrutinib]
SP49
  viable cells: ~5%
SP49-IR
  viable cells: > 90%

## rituximab [reference compound]
[1]
  tumor growth (bioluminescence): no inhibition
JeKo-1-CD20-KO clone 25
  sensitivity to antibody-mediated cytotoxicity: insensitive
JeKo-1-CD20-KO
  tumor burden by bioluminescent imaging: substantial tumor burden
[2]
  activity (ADCC): not active
